Read-outs that look alike come from different tables or passages of the source.

In data set [1] the test system is IL-10-induced JAK1/TYK2 signal pathway. In words: IL-10-induced JAK1/TYK2 signal pathway STAT3-Luc reporter gene assay in U2OS cells. It is filed as cell-based, human. The note with it: Homo sapiens, read-out: Half inhibition dose (IC50) on IL-10-induced JAK1/TYK2 signal pathway. Put shortly: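 U2OS cells co-transfected with IL-10R1-EGFP and STAT3-luciferase reporter plasmids; after 24 h, compound added (0–300 nM) for 6 h before 10 ng/mL human IL-10, then 24 h culture. Luciferase signal normalised to GFP for transfection efficiency; IC50 from inhibition rates.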

Data set [2] relates to IL-2-induced JAK1/JAK3 signal pathway. In words: IL-2-induced proliferation of KHYG-1 cells (JAK1/JAK3 signal). Particulars: Homo sapiens; KHYG-1 cell proliferation, IL-2 10 ng/mL, 72 hours; read-out: Inhibition activity IC50 on IL-2-induced JAK1/JAK3 signal pathway. It is filed as cell-based, human. The gist of the method: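 KHYG-1 NK lymphoma cells were cultured with IL-2 and test compound at various doses for 72 h at 37 °C and 5% CO2, and proliferation was read with alamarBlue fluorescence. Inhibition was normalized to wells without compound or cytokine (0%) and IL-2 wells without compound (100%), and C50 was derived from the dose-inhibition data.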

The nature of data set [3]: In-vivo pharmacokinetic test in mice. The note with it: mouse, po; BALB/c female mice, gavage 10 mg/kg, plasma. The method, then:
LC-MS/MS method is used to determine the drug concentration in the plasma of mice at different times after intragastric administration of the compound of the example. Relevant pharmacokinetic parameters are calculated to study the pharmacokinetic behavior of the compound of the present invention in mice, thereby evaluating the pharmacokinetic characteristics thereof.
Test animal was healthy adult BALB/c female mouse (provided by Chengdu Yaokang Biotechnology Co., Ltd.);
Compound administration and sample collection: compound was administered to BALB/c female mice by gavage (10 mg/kg). At 0.25, 0.5, 1, 2, 4, 6, 8, and 24 hours after administration, 60 μL of whole blood of the mouse fundus venous plexus were collected and centrifuged at 4000 rpm for 10 min to provide plasma.
Sample analysis: 10 μL of mouse plasma samples were respectively added with 290 μL of acetonitrile solution containing internal standard to precipitate proteins. After swirling for 10 min and centrifuging at 4000 rpm for 10 min, 200 μL of supernatant was added to 96-well plate, and analyzed by LC-MS/MS at an injection volume of 1 μL.

Where [4] appears, read: U2OS cells, STAT3-Luc reporter, IL-10 10 ng/mL.
Where [5] appears, read: U2OS, U2OS cells, STAT3-Luc reporter, IL-10 10 ng/mL.

`CCONC(=O)c1cnc(Nc2cc(C)nc(C)n2)cc1Nc1ccc(C(F)(F)F)cc1N(C)S(C)(=O)=O` [Example 202, 6-((2,6-dimethylpyrimidin-4-yl)amino)-N-ethoxy-4-((2-(N-methylmethanesulfonamido)-4-(trifluoromethyl)phenyl)amino)nicotinamide]: the IC50 in data set [1] (setting [4]) is 0.412 nM; in data set [2], > 10 µM.
As to `CCONC(=O)c1cnc(Nc2cc(C)nc(C)n2)cc1Nc1cccc(-c2ncccn2)c1OC` [Example 212], in data set [3], the AUC turned out to be 16.3 µM·h and the concentration peaked (Cmax) at 15 µM. In data set [1] (U2OS), the IC50 stood at 0.271 nM. In addition, the IC50 in data set [2] was > 10 µM.
Turning to `CCONC(=O)c1cnc(Nc2cc(C)nc(C)n2)cc1Nc1cc(F)cc(-c2ncccn2)c1OC` [Example 215, 6-((2,6-dimethylpyrimidin-4-yl)amino)-N-ethoxy-4-((5-fluoro-2-methoxy-3-(pyrimidin-2-yl)phenyl)amino)nicotinamide], in data set [3], the AUC came out at 25.8 µM·h and the concentration peaked (Cmax) at 13.6 µM. In data set [1] (setting [5]), the IC50 amounted to 0.102 nM. Further, in data set [2], the IC50 was > 10 µM.
On the same counts, the results for `CCONC(=O)c1cnc(NC(=O)C2CC2)cc1Nc1cccc(-c2ncc(Cl)cn2)c1OC` [Example 219, 4-((3-(5-chloropyrimidin-2-yl)-2-methoxyphenyl)amino)-6-(cyclopropylcarboxamido)-N-ethoxy nicotinamide] are 16.8 µM·h, 10.3 µM, 1.09 nM and > 10 µM.
`CCONC(=O)c1cnc(Nc2cc(C)nc(C)n2)cc1Nc1cccc(-c2ncc(C)cn2)c1OC` [Example 238, 6-((2,6-dimethylpyrimidin-4-yl)amino)-N-ethoxy-4-((2-methoxy-3-(5-methylpyrimidin-2-yl)phenyl)amino)nicotinamide] gave an AUC in data set [3] of 39.9 µM·h. In addition, the highest level in data set [3] (Cmax) was 15.1 µM. Moreover, the IC50 is 0.168 nM in data set [1] (setting [4]) and > 10 µM in data set [2].

Values taken from patent US20240101548A1, “HYDROXAMATE COMPOUND, PREPARATION METHOD THEREFOR AND APPLICATION THEREOF” (SHENZHEN CHIPSCREEN BIOSCIENCES CO., LTD., priority 2020, published 2024).
